Data taken from DBAASP.
Values after ≈ are worked out from the molar mass of the structure shown.

Tests used:
Assay in all cases: ≥ marks a high value that may be exact or a test limit, other limits are often not marked, values filed in µg/mL are converted to µM
Escherichia coli UB1005 = test system: Escherichia coli UB1005
Candida albicans = test system: Candida albicans
[1] = test system: Pseudomonas aeruginosa M76
[2] = test system: Salmonella enterica serovar Typhimurium
Staphylococcus aureus = test system: Staphylococcus aureus
[3] = test system: Achromobacter xylosoxidans
[4] = test system: Pseudomonas aeruginosa M1251
Pseudomonas fluorescens = test system: Pseudomonas fluorescens
[5] = test system: Stenotrophomonas maltophilia
Pseudomonas aeruginosa = test system: Pseudomonas aeruginosa
[6] = test system: Pseudomonas aeruginosa ATCC 9027
[7] = test system: Pseudomonas aeruginosa M917
Ralstonia pickettii = test system: Ralstonia pickettii
[8] = test system: Staphylococcus aureus ATCC 6538
[9] = test system: Pseudomonas aeruginosa M1426
[10] = test system: Pseudomonas aeruginosa PAO1
[11] = test system: Pseudomonas aeruginosa R70
[12] = test system: Salmonella enterica serovar typhimurium MS7953s
[13] = test system: Pseudomonas aeruginosa Z61
[14] = test system: Staphylococcus aureus C623
Escherichia coli DC2 = test system: Escherichia coli DC2
[15] = test system: Aeromonas salmonicida 97-4
[16] = test system: Salmonella enterica subsp. enterica serovar Typhimurium ATCC 14028s
[17] = test system: Escherichia coli CGSC 4908
[18] = test system: Pseudomonas aeruginosa K799
Candida albicans C627 = test system: Candida albicans C627
[19] = test system: Aeromonas salmonicida 99-1
[20] = test system: Staphylococcus epidermidis C621
[21] = test system: Zymomonas mobilis ATCC 10988
Leuconostoc lactis = test system: Leuconostoc lactis
Streptococcus uberis = test system: Streptococcus uberis
[22] = test system: Staphylococcus epidermidis
Escherichia coli = test system: Escherichia coli
Micrococcus luteus = test system: Micrococcus luteus
Bacillus cereus = test system: Bacillus cereus
Listeria innocua = test system: Listeria innocua
Pasteurella multocida = test system: Pasteurella multocida
[23] = test system: Staphylococcus aureus SAP 0017
[24] = test system: Corynebacterium xerosis C875
[25] = test system: Pseudomonas aeruginosa H188
[26] = test system: Staphylococcus aureus ATCC 25923
Bacillus subtilis C971 = test system: Bacillus subtilis C971
[27] = test system: Salmonella typhimurium C610
[28] = test system: Enterococcus faecalis C625
[29] = test system: Salmonella typhimurium C587
[30] = test system: Pseudomonas aeruginosa H187

Row | MIC (Escherichia coli UB1005) [µM] | MIC (Staphylococcus aureus) [µM] | MIC (Escherichia coli DC2) [µM] | MIC [20] [µM] | SMILES | MIC (Candida albicans) [µM] | MIC [1] [µM] | MIC [2] [µM] | MIC [3] [µM] | MIC [4] [µM] | MIC (Pseudomonas fluorescens) [µM] | MIC [5] [µM] | MIC (Pseudomonas aeruginosa) [µM] | MIC [7] [µM] | MIC (Ralstonia pickettii) [µM] | MIC [9] [µM] | MIC [10] [µM] | MIC [11] [µM] | also measured
1 | – | 28.3 (≈ 50 µg/mL) | – | – | CC[C@H](C)[C@H](NC(=O)[C@H](CO)NC(=O)[C@H](CO)NC(=O)[C@H](C)NC(=O)[C@@H](NC(=O)[C@H](Cc1cnc[nH]1)NC(=O)CNC(=O)[C@H](C)NC(=O)[C@@H](NC(=O)[C@H](CCCCN)NC(=O)[C@H](CCCCN)NC(=O)[C@@H](NC(=O)[C@@H](NC(=O)[C@H](CC(=O)O)NC(=O)[C@H](Cc1ccccc1)NC(=O)[C@H](CC(C)C)NC(=O)CN)[C@@H](C)CC)C(C)C)[C@@H](C)CC)[C@@H](C)CC)C(N)=O [GLFDIVKKIAGHIASSI] | – | – | – | – | – | – | – | – | – | – | – | – | – | MIC (Leuconostoc lactis): 3.39 µM (≈ 6 µg/mL); MIC (Streptococcus uberis): 28.3 µM (≈ 50 µg/mL); MIC [22]: 28.3 µM (≈ 50 µg/mL); MIC (Escherichia coli): > 56.5 µM; MIC (Micrococcus luteus): ≥ 56.5 µM; MIC (Bacillus cereus): ≥ 56.5 µM; MIC (Listeria innocua): ≥ 56.5 µM; MIC (Pasteurella multocida): ≥ 56.5 µM
2 | 0.869 (≈ 2.54 µg/mL) | – | 0.869 (≈ 2.54 µg/mL) | 1.11 (≈ 3.25 µg/mL) | CC[C@H](C)[C@H](NC(=O)[C@H](C)NC(=O)[C@H](CCCCN)NC(=O)[C@H](CC(C)C)NC(=O)[C@H](C)NC(=O)[C@@H](NC(=O)[C@H](Cc1cnc[nH]1)NC(=O)[C@H](CC(C)C)NC(=O)[C@@H](NC(=O)[C@@H](NC(=O)[C@H](CCCCN)NC(=O)CNC(=O)[C@H](C)NC(=O)[C@H](CO)NC(=O)[C@H](CCCCN)NC(=O)[C@H](Cc1ccccc1)NC(=O)[C@@H](NC(=O)[C@H](CCCCN)NC(=O)[C@H](CC(C)C)NC(=O)[C@H](Cc1ccccc1)NC(=O)[C@H](CO)NC(=O)[C@H](CCCCN)NC(=O)[C@H](Cc1c[nH]c2ccccc12)NC(=O)[C@H](CCCCN)NC(C)=O)[C@@H](C)O)[C@@H](C)O)C(C)C)[C@@H](C)O)C(=O)N[C@@H](CO)C(=O)N[C@@H](CO)C(N)=O [KWKSFLKTFKSAGKTVLHTALKAISS] | – | – | – | – | – | – | – | – | – | – | – | – | – | MIC [23]: 3.51 µM (≈ 10.2 µg/mL); MIC [24]: 0.695 µM (≈ 2.03 µg/mL); MIC [25]: 3.51 µM (≈ 10.2 µg/mL); MIC [26]: 8.82 µM (≈ 25.8 µg/mL); MIC (Bacillus subtilis C971): 0.695 µM (≈ 2.03 µg/mL); MIC [27]: 0.869 µM (≈ 2.54 µg/mL); MIC [28]: 17.6 µM (≈ 51.5 µg/mL); MIC [29]: 1.74 µM (≈ 5.07 µg/mL); MIC [30]: 2.22 µM (≈ 6.49 µg/mL)

The remaining lines, values behind:

Row | SMILES | MIC (Escherichia coli UB1005) [µM] | MIC (Staphylococcus aureus) [µM] | MIC (Escherichia coli DC2) [µM] | MIC [20] [µM] | MIC (Candida albicans) [µM] | MIC [1] [µM] | MIC [2] [µM] | MIC [3] [µM] | MIC [4] [µM] | MIC (Pseudomonas fluorescens) [µM] | MIC [5] [µM] | MIC (Pseudomonas aeruginosa) [µM] | MIC [7] [µM] | MIC (Ralstonia pickettii) [µM] | MIC [9] [µM] | MIC [10] [µM] | MIC [11] [µM] | also measured
3 | CC(C)C[C@H](NC(=O)[C@H](CCCCN)NC(=O)[C@H](CCCCN)NC(=O)[C@H](C)NC(=O)[C@H](CC(C)C)NC(=O)[C@H](CCCCN)NC(=O)[C@H](CCCCN)NC(=O)[C@H](CC(C)C)NC(=O)[C@H](CCCCN)NC(=O)[C@H](CCCCN)NC(=O)[C@H](C)NC(=O)[C@H](CC(C)C)NC(=O)[C@H](CCCCN)NC(=O)[C@H](CCCCN)NC(=O)[C@H](C)NC(=O)[C@@H](N)Cc1ccccc1)C(=O)N[C@@H](C)C(=O)N[C@@H](CCCCN)C(=O)O [FAKKLAKKLKKLAKKLAK] | 0.973 (≈ 2 µg/mL) | > 62.3 | – | – | 15.6 (≈ 32 µg/mL) | 3.89 (≈ 8 µg/mL) | 3.89 (≈ 8 µg/mL) | 3.89 (≈ 8 µg/mL) | 3.89 (≈ 8 µg/mL) | 3.89 (≈ 8 µg/mL) | 0.486 (≈ 1 µg/mL) | 7.78 (≈ 16 µg/mL) | 15.6 (≈ 32 µg/mL) | 1.95 (≈ 4 µg/mL) | 3.89 (≈ 8 µg/mL) | 3.89 (≈ 8 µg/mL) | 0.973 (≈ 2 µg/mL) | MIC [6]: 7.3 µM (≈ 15 µg/mL); MIC [8]: 7.3 µM (≈ 15 µg/mL)
4 | CC(C)C[C@H](NC(=O)[C@H](C)NC(=O)[C@H](CCCCN)NC(=O)[C@H](CCCCN)NC(=O)[C@H](CC(C)C)NC(=O)[C@H](C)NC(=O)[C@H](CCCCN)NC(=O)[C@H](CCCCN)NC(=O)[C@H](CC(C)C)NC(=O)[C@H](CCCCN)NC(=O)[C@H](CCCCN)NC(=O)[C@H](CC(C)C)NC(=O)[C@H](C)NC(=O)[C@H](CCCCN)NC(=O)[C@H](CC(C)C)NC(=O)[C@H](C)NC(=O)[C@@H](N)Cc1ccccc1)C(N)=O [FALKALKKLKKALKKAL] | 2.09 (≈ 4 µg/mL) | 4.18 (≈ 8 µg/mL) | – | – | 8.37 (≈ 16 µg/mL) | 8.37 (≈ 16 µg/mL) | 4.18 (≈ 8 µg/mL) | ≥ 66.9 | 4.18 (≈ 8 µg/mL) | 2.09 (≈ 4 µg/mL) | 2.09 (≈ 4 µg/mL) | 4.18 (≈ 8 µg/mL) | 8.37 (≈ 16 µg/mL) | 2.09 (≈ 4 µg/mL) | 8.37 (≈ 16 µg/mL) | 4.18 (≈ 8 µg/mL) | 2.09 (≈ 4 µg/mL) | –
5 | CC(=O)[C@H](C)NC(=O)[C@H](C)NC(=O)[C@H](CC(N)=O)NC(=O)[C@H](CC(C)C)NC(=O)[C@H](Cc1ccc(O)cc1)NC(=O)CNC(=O)CNC(=O)CNC(=O)[C@H](Cc1cnc[nH]1)NC(=O)[C@H](Cc1cnc[nH]1)NC(=O)[C@@H](NC(=O)CNC(=O)[C@H](Cc1cnc[nH]1)NC(=O)[C@H](Cc1ccccc1)NC(=O)[C@H](CC(C)C)NC(=O)[C@H](CC(C)C)NC(=O)[C@H](CCCNC(=N)N)NC(=O)[C@H](Cc1ccccc1)NC(=O)[C@@H](N)Cc1ccccc1)C(C)C [FFRLLFHGVHHGGGYLNAA] | 30.3 (≈ 63.9 µg/mL) | – | 30.3 (≈ 63.9 µg/mL) | 30.3 (≈ 63.9 µg/mL) | – | – | – | – | – | – | – | – | – | – | – | – | – | MIC [12]: 30.3 µM (≈ 63.9 µg/mL); MIC [13]: 30.3 µM (≈ 63.9 µg/mL); MIC [14]: 30.3 µM (≈ 63.9 µg/mL); MIC [15]: 30.3 µM (≈ 63.9 µg/mL); MIC [16]: 30.3 µM (≈ 63.9 µg/mL); MIC [17]: 30.3 µM (≈ 63.9 µg/mL); MIC [18]: 30.3 µM (≈ 63.9 µg/mL); MIC (Candida albicans C627): 30.3 µM (≈ 63.9 µg/mL); MIC [19]: 30.3 µM (≈ 63.9 µg/mL)
6 | CC[C@H](C)[C@H](NC(=O)[C@H](CCCCN)NC(=O)[C@H](CCC(N)=O)NC(=O)[C@@H](NC(=O)[C@@H](NC(=O)[C@H](CCCN=C(N)N)NC(=O)[C@H](CCCCN)NC(=O)[C@@H](N)Cc1ccccc1)[C@@H](C)CC)C(C)C)C(=O)N[C@@H](CCCCN)C(=O)N[C@@H](CC(=O)O)C(=O)N[C@@H](Cc1ccccc1)C(=O)N[C@@H](CC(C)C)C(=O)N[C@@H](CCCN=C(N)N)C(N)=O [FKRIVQKIKDFLR] | – | – | – | – | – | – | – | – | – | – | – | – | – | – | – | – | – | MIC [21]: ≥ 118 µM
